Data from PubChem BioAssay AID2060889 (Molecular Pharmacology Branch, DTP, NCI, 2025).

Test system: LG0567-F671-PDC complex spheroids viability
Assay: Anticancer human tumor LG0567-F671-PDC patient-derived lung adenocarcinoma cell line growth inhibition [RAS]
Conditions: for IC50: curve of first compound; for viability, T/C: stronger effect = lower value
Summary of the method: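 Tumour cells grown as complex spheroids with HUVEC endothelial cells and mesenchymal stem cells, treated with RAS pathway inhibitor combinations. Each agent spans half-log steps from near clinical Cmax, or 10 microM where Cmax is unknown.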
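Also: spheroids exposed to compound for seven days before readout.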
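For IC50 in this document: luminescence signal used as a proxy for viable cells.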

CC(C)NCC(C(=O)N1CCN(c2ncnc3c2C(C)CC3O)CC1)c1ccc(Cl)cc1 (configuration not stated) + CCn1c(-c2cc(N3CCN(C)CC3)cnc2C(C)OC)c2c3cc(ccc31)-c1csc(n1)CC(NC(=O)C1CC1C)C(=O)N1CCCC(N1)C(=O)OCC(C)(C)C2
IC50 (second compound 0.000949 µM): < 0.0316 µM
IC50 (second compound 0.003 µM): < 0.0316 µM
IC50 (second compound 0.00949 µM): < 0.0316 µM
IC50 (second compound 0.03 µM): < 0.0316 µM
IC50 (second compound 0.0949 µM): < 0.0316 µM
IC50 (second compound 0.3 µM): < 0.0316 µM
viability, T/C (second compound 0.000949 µM, first compound 0.0316 µM): 25.2%
viability, T/C (second compound 0.000949 µM, first compound 0.1 µM): 23.8%
viability, T/C (second compound 0.000949 µM, first compound 0.316 µM): 19.2%
viability, T/C (second compound 0.000949 µM, first compound 1 µM): 14.8%
viability, T/C (second compound 0.000949 µM, first compound 3.16 µM): 12.1%
viability, T/C (second compound 0.000949 µM, first compound 10 µM): 15.1%
viability, T/C (second compound 0.003 µM, first compound 0.0316 µM): 12.2%
viability, T/C (second compound 0.003 µM, first compound 0.1 µM): 10.1%
viability, T/C (second compound 0.003 µM, first compound 0.316 µM): 9.03%
viability, T/C (second compound 0.003 µM, first compound 1 µM): 7.01%
viability, T/C (second compound 0.003 µM, first compound 3.16 µM): 6.61%
viability, T/C (second compound 0.003 µM, first compound 10 µM): 6.58%
viability, T/C (second compound 0.00949 µM, first compound 0.0316 µM): 6.47%
viability, T/C (second compound 0.00949 µM, first compound 0.1 µM): 6.39%
viability, T/C (second compound 0.00949 µM, first compound 0.316 µM): 5.04%
viability, T/C (second compound 0.00949 µM, first compound 1 µM): 4.97%
viability, T/C (second compound 0.00949 µM, first compound 3.16 µM): 3.86%
viability, T/C (second compound 0.00949 µM, first compound 10 µM): 3.52%
viability, T/C (second compound 0.03 µM, first compound 0.0316 µM): 4.03%
viability, T/C (second compound 0.03 µM, first compound 0.1 µM): 3.99%
viability, T/C (second compound 0.03 µM, first compound 0.316 µM): 3.4%
viability, T/C (second compound 0.03 µM, first compound 1 µM): 2.83%
viability, T/C (second compound 0.03 µM, first compound 3.16 µM): 2.4%
viability, T/C (second compound 0.03 µM, first compound 10 µM): 2.51%
viability, T/C (second compound 0.0949 µM, first compound 0.0316 µM): 3.05%
viability, T/C (second compound 0.0949 µM, first compound 0.1 µM): 2.86%
viability, T/C (second compound 0.0949 µM, first compound 0.316 µM): 2.34%
viability, T/C (second compound 0.0949 µM, first compound 1 µM): 1.84%
viability, T/C (second compound 0.0949 µM, first compound 3.16 µM): 1.68%
viability, T/C (second compound 0.0949 µM, first compound 10 µM): 1.73%
viability, T/C (second compound 0.3 µM, first compound 0.0316 µM): 2.97%
viability, T/C (second compound 0.3 µM, first compound 0.1 µM): 2.51%
viability, T/C (second compound 0.3 µM, first compound 0.316 µM): 2.28%
viability, T/C (second compound 0.3 µM, first compound 1 µM): 1.91%
viability, T/C (second compound 0.3 µM, first compound 3.16 µM): 1.51%
viability, T/C (second compound 0.3 µM, first compound 10 µM): 1.41%
